Source: PubChem BioAssay (NCI)
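48-hour exposure; five concentrations; linearly interpolated endpoints. TGI is the concentration that stops growth completely.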

How the values were obtained:
Assay in all cases: growth of human tumour cells (NCI), 48 h
786-0 renal = tested on: 786-0 renal
A498 renal = tested on: A498 renal
A549 NSCLC = tested on: A549 NSCLC
ACHN renal = tested on: ACHN renal
CAKI-1 renal = tested on: CAKI-1 renal
CCRF-CEM leukemia = tested on: CCRF-CEM leukemia
COLO 205 colon = tested on: COLO 205 colon
DLD-1 colon = tested on: DLD-1 colon
DMS 114 small cell lung = tested on: DMS 114 small cell lung
DMS 273 small cell lung = tested on: DMS 273 small cell lung
EKVX NSCLC = tested on: EKVX NSCLC
HCC-2998 colon = tested on: HCC-2998 colon
HCT-116 colon = tested on: HCT-116 colon
HCT-15 colon = tested on: HCT-15 colon
HL-60(TB) leukemia = tested on: HL-60(TB) leukemia
HOP-18 NSCLC = tested on: HOP-18 NSCLC
HOP-62 NSCLC = tested on: HOP-62 NSCLC
HOP-92 NSCLC = tested on: HOP-92 NSCLC
HT29 colon = tested on: HT29 colon
IGROV1 ovarian = tested on: IGROV1 ovarian
K-562 leukemia = tested on: K-562 leukemia
KM12 colon = tested on: KM12 colon
KM20L2 colon = tested on: KM20L2 colon
LOX IMVI melanoma = tested on: LOX IMVI melanoma
LXFL 529 NSCLC = tested on: LXFL 529 NSCLC
M14 melanoma = tested on: M14 melanoma
M19-MEL melanoma = tested on: M19-MEL melanoma
MALME-3M melanoma = tested on: MALME-3M melanoma
MOLT-4 leukemia = tested on: MOLT-4 leukemia
NCI-H226 lung = tested on: NCI-H226 lung
NCI-H23 lung = tested on: NCI-H23 lung
NCI-H460 lung = tested on: NCI-H460 lung
NCI-H522 lung = tested on: NCI-H522 lung
OVCAR-3 ovarian = tested on: OVCAR-3 ovarian
OVCAR-4 ovarian = tested on: OVCAR-4 ovarian
OVCAR-5 ovarian = tested on: OVCAR-5 ovarian
OVCAR-8 ovarian = tested on: OVCAR-8 ovarian
RXF 393 renal = tested on: RXF 393 renal
RXF-631 renal = tested on: RXF-631 renal
SF-268 CNS = tested on: SF-268 CNS
SF-295 CNS = tested on: SF-295 CNS
SF-539 CNS = tested on: SF-539 CNS
SK-MEL-28 melanoma = tested on: SK-MEL-28 melanoma
SK-MEL-5 melanoma = tested on: SK-MEL-5 melanoma
SN12C renal = tested on: SN12C renal
SNB-19 CNS = tested on: SNB-19 CNS
SNB-75 CNS = tested on: SNB-75 CNS
SNB-78 CNS = tested on: SNB-78 CNS
SR leukemia = tested on: SR leukemia
SW-620 colon = tested on: SW-620 colon
TK-10 renal = tested on: TK-10 renal
U251 CNS = tested on: U251 CNS
UACC-257 melanoma = tested on: UACC-257 melanoma
UACC-62 melanoma = tested on: UACC-62 melanoma
UO-31 renal = tested on: UO-31 renal

Measured: TGI

COc1ccc(N=Nc2c(-c3ccccc3)nn(C(=O)CC(=O)Nc3ccccc3Cl)c2-c2ccccc2)cc1
11.3 µM: SR leukemia
8.85 µM: MOLT-4 leukemia
> 100 µM: all other assays above
